Consider 24 compounds from PubChem BioAssay AID256 (DTP/NCI, 2004).

The subject of this assay is CD2F1 mice, L1210 leukemia ip, survival T/C. In words: NCI In Vivo Anticancer Drug Screen. Data for tumor model L1210 Leukemia (intraperitoneal) in CD2F1 (CDF1) mice. The note with it: higher = longer survival. In outline:
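Transplantable tumor in mice; compound-treated vs vehicle-treated groups. Read-out = treated/control ratio of the measured endpoint.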

Setting [1] is: endpoint: mean survival time, dose: 100.0 mg/kg/injection, schedule: Q01DX001 (ip), vehicle: saline.
The mark [2] stands for this setting: endpoint: mean survival time, dose: 200.0 mg/kg/injection, schedule: Q01DX001 (ip), vehicle: saline.
[3] abbreviates: endpoint: mean survival time, dose: 400.0 mg/kg/injection, schedule: Q01DX001 (ip), vehicle: saline.
[4] abbreviates: endpoint: mean survival time, dose: 100.0 mg/kg/injection, schedule: Q01DX001 (ip), vehicle: saline with Tween-80.
[5] abbreviates: endpoint: mean survival time, dose: 200.0 mg/kg/injection, schedule: Q01DX001 (ip), vehicle: saline with Tween-80.
Setting [6] is: endpoint: mean survival time, dose: 400.0 mg/kg/injection, schedule: Q01DX001 (ip), vehicle: saline with Tween-80.
[7] abbreviates: endpoint: mean survival time, dose: 12.5 mg/kg/injection, schedule: Q04DX003 (ip), vehicle: saline with Tween-80.
The mark [8] stands for this setting: endpoint: mean survival time, dose: 25.0 mg/kg/injection, schedule: Q04DX003 (ip), vehicle: saline with Tween-80.
The mark [9] stands for this setting: endpoint: mean survival time, dose: 50.0 mg/kg/injection, schedule: Q04DX003 (ip), vehicle: saline with Tween-80.
[10] abbreviates: endpoint: mean survival time, dose: 100.0 mg/kg/injection, schedule: Q04DX003 (ip), vehicle: saline with Tween-80.
Setting [11] is: endpoint: mean survival time, dose: 200.0 mg/kg/injection, schedule: Q04DX003 (ip), vehicle: saline with Tween-80.
Setting [12] is: endpoint: mean survival time, dose: 400.0 mg/kg/injection, schedule: Q04DX003 (ip), vehicle: saline with Tween-80.
Where [13] appears, read: endpoint: mean survival time, dose: 100.0 mg/kg/injection, schedule: Q01DX009 (ip), vehicle: saline with Tween-80.
Setting [14] is: endpoint: mean survival time, dose: 200.0 mg/kg/injection, schedule: Q01DX009 (ip), vehicle: saline with Tween-80.
[15] abbreviates: endpoint: mean survival time, dose: 400.0 mg/kg/injection, schedule: Q01DX009 (ip), vehicle: saline with Tween-80.

Values joined by “and” are separate entries in the source; they are usually repeats but may differ in a detail not shown here. Equal entries are not always repeated. Inconclusive results and toxic doses are left out. Residues, ends and D or L forms follow the SMILES beside them. *: point of attachment. Cbz = O=C(OCc1ccccc1)*; Bn = c1ccc(C*)cc1

On to `O=C(O)/C=C\C(=O)O`, for which the T/C is 107 % of control (endpoint: mean survival time, dose: 0.5 mg/kg/injection, schedule: Q04DX003 (ip), vehicle: saline with Tween-80); 100 % of control (endpoint: mean survival time, dose: 1.0 mg/kg/injection, schedule: Q01DX009 (ip), vehicle: saline); 95 % of control (endpoint: mean survival time, dose: 1.0 mg/kg/injection, schedule: Q04DX003 (ip), vehicle: saline with Tween-80); 89 % of control and 95 % of control (endpoint: mean survival time, dose: 1.56 mg/kg/injection, schedule: Q04DX003 (ip), vehicle: saline); 97 % of control (endpoint: mean survival time, dose: 2.0 mg/kg/injection, schedule: Q01DX009 (ip), vehicle: saline); 103 % of control (endpoint: mean survival time, dose: 3.0 mg/kg/injection, schedule: Q04DX003 (ip), vehicle: saline with Tween-80). Further, the T/C is 87 % of control and 91 % of control (endpoint: mean survival time, dose: 3.13 mg/kg/injection, schedule: Q04DX003 (ip), vehicle: saline); 103 % of control (endpoint: mean survival time, dose: 6.0 mg/kg/injection, schedule: Q04DX003 (ip), vehicle: saline with Tween-80); 92 % of control and 96 % of control (endpoint: mean survival time, dose: 6.25 mg/kg/injection, schedule: Q04DX003 (ip), vehicle: saline).

For the compound `O=C(O)C(=O)Cc1ccc2c(c1)OCO2`, the T/C was 98 % of control under setting [1], 104 % of control under setting [2] and 98 % of control under setting [3].

Take `CC1CCC(n2cnc3c(Cl)ncnc32)O1` (stereo not drawn): the T/C (endpoint: median survival time, dose: 12.5 mg/kg/injection, schedule: Q01DX009 (ip), vehicle: Klucel (hydroxypropylcellulose) (HPC)) is 97 % of control and 101 % of control; the T/C (endpoint: median survival time, dose: 25.0 mg/kg/injection, schedule: Q01DX009 (ip), vehicle: Klucel (hydroxypropylcellulose) (HPC)) is 95 % of control and 100 % of control and 105 % of control; the T/C (endpoint: median survival time, dose: 50.0 mg/kg/injection, schedule: Q01DX009 (ip), vehicle: Klucel (hydroxypropylcellulose) (HPC)) is 113 % of control and 93 % of control and 108 % of control; the T/C (endpoint: median survival time, dose: 100.0 mg/kg/injection, schedule: Q01DX009 (ip), vehicle: Klucel (hydroxypropylcellulose) (HPC)) was 102 % of control and 108 % of control and 111 % of control; the T/C (endpoint: median survival time, dose: 200.0 mg/kg/injection, schedule: Q01DX009 (ip), vehicle: Klucel (hydroxypropylcellulose) (HPC)) was 113 % of control (2×) and 114 % of control.

As for `CC(C)C1C=C2CCC3C(C)(C(=O)O)CCCC3(C)C2CC1` (stereo not drawn), the T/C is, setting by setting: under setting [4], 96 % of control; under setting [5], 94 % of control; under setting [6], 92 % of control.

As to `C/C=C/c1cc2n(c1)C(=O)c1cc(OC3OC(C)C(NC)C(C)(O)C3O)c(C)c(O)c1NC2O` (stereo not drawn), the T/C is 108 % of control (endpoint: mean survival time, dose: 4.0 micrograms/kg/injection, schedule: Q01DX009 (ip), vehicle: saline) and 110 % of control (endpoint: mean survival time, dose: 8.0 micrograms/kg/injection, schedule: Q01DX009 (ip), vehicle: saline).

With `O=C(OCC1OC(n2cnc3c(=S)nc[nH]c32)C(OC(=O)c2ccc([N+](=O)[O-])cc2)C1OC(=O)c1ccc([N+](=O)[O-])cc1)c1ccc([N+](=O)[O-])cc1` (stereo not drawn), the T/C (endpoint: mean survival time, dose: 132.0 mg/kg/injection, schedule: Q01DX009 (ip), vehicle: saline with Tween-80) is 157 % of control.

`NC(N)=N/N=C/c1ccc(Cl)c(Cl)c1`: the T/C was 105 % of control under setting [7], 97 % of control under setting [8] and 94 % of control under setting [9].

For the compound `Cc1c([C@H](C)[C@@H]2NC[C@@H](C)C[C@H]2O)ccc2c1C[C@H]1[C@H]2CC=C2C[C@@H](O)CC[C@@]21C`, the T/C runs as follows: (endpoint: mean survival time, dose: 2.5 mg/kg/injection, schedule: Q01DX009 (ip), vehicle: Klucel (hydroxypropylcellulose) (HPC)) 96 % of control; (endpoint: mean survival time, dose: 5.0 mg/kg/injection, schedule: Q01DX009 (ip), vehicle: Klucel (hydroxypropylcellulose) (HPC)) 102 % of control.

As to `COc1cc2c(ccc3c4cc(OC)c(OC)cc4c[n+](C)c23)cc1O`, the T/C (endpoint: mean survival time, dose: 80.0 mg/kg/injection, schedule: Q01DX009 (ip), vehicle: saline) is 150 % of control; the T/C (endpoint: mean survival time, dose: 160.0 mg/kg/injection, schedule: Q01DX009 (ip), vehicle: saline with Tween-80) was 150 % of control; the T/C (endpoint: mean survival time, dose: 160.0 mg/kg/injection, schedule: Q01DX009 (ip), vehicle: saline) was 174 % of control; the T/C (endpoint: mean survival time, dose: 320.0 mg/kg/injection, schedule: Q01DX009 (ip), vehicle: saline with Tween-80) was 87 % of control; the T/C (endpoint: mean survival time, dose: 320.0 mg/kg/injection, schedule: Q01DX009 (ip), vehicle: saline) was 86 % of control.

On to `CCOC(=O)c1c(O)csc1N`, for which the T/C under setting [10] is 110 % of control, the T/C under setting [11] is 98 % of control and the T/C under setting [12] was 98 % of control.

`COc1ccc(C(O)(c2ccccc2)C(OC(=O)CCl)c2ccccc2)cc1` (stereo not drawn): the T/C is 91 % of control under setting [5] and 89 % of control under setting [6].

`CSc1nn(C2OC(COC(=O)c3ccccc3)C(OC(=O)c3ccccc3)C2OC(=O)c2ccccc2)c(=O)[nH]c1=S` (stereo not drawn): the T/C runs as follows: (endpoint: mean survival time, dose: 12.5 mg/kg/injection, schedule: Q01DX005 (ip), vehicle: distilled water + Tween-80) 96 % of control; (endpoint: mean survival time, dose: 25.0 mg/kg/injection, schedule: Q01DX005 (ip), vehicle: distilled water + Tween-80) 98 % of control; (endpoint: mean survival time, dose: 50.0 mg/kg/injection, schedule: Q01DX005 (ip), vehicle: distilled water + Tween-80) 95 % of control; (endpoint: mean survival time, dose: 100.0 mg/kg/injection, schedule: Q01DX005 (ip), vehicle: distilled water + Tween-80) 93 % of control; (endpoint: mean survival time, dose: 200.0 mg/kg/injection, schedule: Q01DX005 (ip), vehicle: distilled water + Tween-80) 91 % of control.

Take `CC(=O)/C(N=Nc1ccc(S(=O)(=O)c2ccc(N=N/C(C(C)=O)=C(/C)O)cc2)cc1)=C(\C)O`: the T/C is 86 % of control under setting [13], 86 % of control under setting [14] and 102 % of control under setting [15].

Turning to `CCOC(=O)C(C=O)(NC(=O)c1ccccc1)OCC` (stereo not drawn), the T/C runs as follows: under setting [13], 100 % of control; under setting [14], 105 % of control; under setting [15], 96 % of control.

Take `CCCCCOC(=N)CC(=O)C(C)(C)C`: the T/C was 94 % of control under setting [1], 94 % of control under setting [2] and 97 % of control under setting [3].

In the case of `O=C([O][Sb]([O]C(=O)C(Br)Br)([c]1ccccc1)([c]1ccccc1)[c]1ccccc1)C(Br)Br`, the T/C was 95 % of control under setting [10], 89 % of control under setting [11] and 95 % of control under setting [12].

As for `[Cl][Pt+2][Cl].[NH-]CCc1ccccc1.[NH-]CCc1ccccc1`, the T/C was 103 % of control under setting [7]; 106 % of control under setting [8]; 106 % of control under setting [9]; 103 % of control under setting [10]; 117 % of control under setting [11].

`Nc1nc2c(c(=O)[nH]1)N1C(=S)N(c3ccc(C(=O)NC(CCC(=O)O)C(=O)O)cc3)CC1CN2` (stereo not drawn): the T/C (endpoint: mean survival time, dose: 100.0 mg/kg/injection, schedule: Q01DX001 (ip), vehicle: sodium bicarbonate) was 104 % of control; the T/C (endpoint: mean survival time, dose: 200.0 mg/kg/injection, schedule: Q01DX001 (ip), vehicle: sodium bicarbonate) is 98 % of control; the T/C (endpoint: mean survival time, dose: 400.0 mg/kg/injection, schedule: Q01DX001 (ip), vehicle: sodium bicarbonate) was 102 % of control.

With `COc1ccc(C(=O)CC(C(=O)O)c2ccc3c(c2)OCO3)cc1OC` (stereo not drawn), the T/C under setting [10] was 101 % of control, the T/C under setting [11] is 101 % of control and the T/C under setting [12] was 101 % of control.

Take `COC(=O)C(Cc1ccccc1)NC(=O)C(CSCc1ccccc1)NC(=O)OCc1ccccc1` (stereo not drawn) (Cbz-Cys(Bn)-Phe-OMe; configuration not given here): the T/C was 93 % of control under setting [4], 91 % of control under setting [13], 95 % of control under setting [5] and 89 % of control under setting [6].

Take `Cc1n[nH]c2ccc([N+](=O)[O-])cc2c1=O`: the T/C under setting [13] is 89 % of control.

On to `Nc1ncccc1[N+](=O)[O-]`, for which the T/C by setting is: under setting [4], 97 % of control; under setting [10], 105 % of control; under setting [5], 96 % of control; under setting [11], 102 % of control; under setting [6], 98 % of control; under setting [12], 105 % of control.

With `CN(C)/C=C\C(=O)O`, the T/C by setting is: (endpoint: mean survival time, dose: 100.0 mg/kg/injection, schedule: Q04DX002 (ip), vehicle: saline with Tween-80) 102 % of control; (endpoint: mean survival time, dose: 200.0 mg/kg/injection, schedule: Q04DX002 (ip), vehicle: saline with Tween-80) 102 % of control; (endpoint: mean survival time, dose: 400.0 mg/kg/injection, schedule: Q04DX002 (ip), vehicle: saline with Tween-80) 98 % of control.

For the compound `Cc1ccccc1NCS(=O)(=O)O`, the T/C by setting is: (endpoint: mean survival time, dose: 100.0 mg/kg/injection, schedule: Q04DX003 (ip), vehicle: saline) 101 % of control; (endpoint: mean survival time, dose: 200.0 mg/kg/injection, schedule: Q04DX003 (ip), vehicle: saline) 104 % of control; (endpoint: mean survival time, dose: 400.0 mg/kg/injection, schedule: Q04DX003 (ip), vehicle: saline) 98 % of control.
